According to ChEMBL document CHEMBL3885861, “Open TG-GATES”:

Species on record: Rattus norvegicus
Assay: Open TG-GATES - Regimen: Single
Type: toxicity, organism-based, Sprague-Dawley
Design: regimen Single, gender Male, age 6 weeks
Conditions: in vivo, po, 100 mg/kg, route gavage, dose level High; for APTT / Bas / Eos / Fbg / Hb / Ht / Lym / MCH / MCHC / MCV / Mono / Neu / PT / Plat / RBC / Ret / WBC: tissue Blood; for KIDNEY_L / KIDNEY_R / KIDNEY_TOTAL: tissue Kidney; for LIVER: tissue Liver; for A/G / ALP / ALT / AST / BUN / CRE / Ca / Cl / DBIL / GLC / IP / K / LDH / Na / PL / RALB / TBIL / TC / TG / TP / gamma-GTP: tissue Plasma

CC1=C(/C=C/C(C)=C/C=C/C(C)=C/CO)C(C)(C)CCC1 [RETINOL] showed a TERMINAL_BW (3 h) of 201.1 g, an APTT (3 h) of 21.6 s and a Bas (3 h) of 0%. It also gave an Eos (3 h) of 1%, a Fbg (3 h) of 312.4 mg/dL and a Hb (3 h) of 13.3 g/dL. The Ht (3 h) was 38.7%, the Lym (3 h) was 77.2% and the MCH (3 h) was 21.4 pg. It also gave an MCHC (3 h) of 34.5%, an MCV (3 h) of 62 fL and a Mono (3 h) of 2.6%. For the same molecule, the Neu (3 h) was 19%, the PT (3 h) was 15.7 s and the Plat (3 h) was 117.7 x10_4/uL. The RBC (3 h) was 625.8 x10_4/ul, the Ret (3 h) was 8% and the WBC (3 h) was 79.7 x10_2/uL. The KIDNEY_L (3 h) was 0.9 g, the KIDNEY_R (3 h) was 0.9 g and the KIDNEY_TOTAL (3 h) was 1.8 g. For the same molecule, the LIVER (3 h) was 9.1 g, the A/G (3 h) was 1.4 and the ALP (3 h) was 1910.2 IU/L. It also gave an ALT (3 h) of 46 IU/L, an AST (3 h) of 77 IU/L and a BUN (3 h) of 13.6 mg/dL. The CRE (3 h) was 0.2 mg/dL, the Ca (3 h) was 11 mg/dL and the Cl (3 h) was 106.2 meq/L. The DBIL (3 h) was 0 mg/dL, the GLC (3 h) was 182 mg/dL and the IP (3 h) was 9.4 mg/dL. The K (3 h) was 4 meq/L, the LDH (3 h) was 219.2 IU/L and the Na (3 h) was 141.2 meq/L. For the same molecule, the PL (3 h) was 157.4 mg/dL, the RALB (3 h) was 3.2 g/dL and the TBIL (3 h) was 0.006 mg/dL. The TC (3 h) was 77 mg/dL, the TG (3 h) was 153 mg/dL and the TP (3 h) was 5.6 g/dL. It also gave a gamma-GTP (3 h) of 1.6 IU/L, a TERMINAL_BW (6 h) of 205.2 g and an APTT (6 h) of 20.3 s. For the same molecule, the Bas (6 h) was 0%, the Eos (6 h) was 1% and the Fbg (6 h) was 292.8 mg/dL. For the same molecule, the Hb (6 h) was 13.2 g/dL, the Ht (6 h) was 38.6% and the Lym (6 h) was 73.8%. The MCH (6 h) was 21.1 pg, the MCHC (6 h) was 34.2% and the MCV (6 h) was 61.8 fL. The Mono (6 h) was 4.8%, the Neu (6 h) was 19.8% and the PT (6 h) was 15 s. It also gave a Plat (6 h) of 120.3 x10_4/uL, an RBC (6 h) of 625.6 x10_4/ul and a Ret (6 h) of 7.8%. It also gave a WBC (6 h) of 110 x10_2/uL, a KIDNEY_L (6 h) of 0.9 g and a KIDNEY_R (6 h) of 0.9 g. For the same molecule, the KIDNEY_TOTAL (6 h) was 1.8 g, the LIVER (6 h) was 9 g and the A/G (6 h) was 1.3. It also gave an ALP (6 h) of 1660.6 IU/L, an ALT (6 h) of 37.6 IU/L and an AST (6 h) of 74 IU/L. For the same molecule, the BUN (6 h) was 10.6 mg/dL, the CRE (6 h) was 0.1 mg/dL and the Ca (6 h) was 11.3 mg/dL. It also gave a Cl (6 h) of 105.8 meq/L, a DBIL (6 h) of 0.006 mg/dL and a GLC (6 h) of 190.4 mg/dL. The IP (6 h) was 10.6 mg/dL, the K (6 h) was 4.3 meq/L and the LDH (6 h) was 212.4 IU/L. The Na (6 h) was 141.8 meq/L, the PL (6 h) was 147.8 mg/dL and the RALB (6 h) was 3.1 g/dL. For the same molecule, the TBIL (6 h) was 0.016 mg/dL, the TC (6 h) was 71.8 mg/dL and the TG (6 h) was 118 mg/dL. For the same molecule, the TP (6 h) was 5.4 g/dL, the gamma-GTP (6 h) was 1 IU/L and the TERMINAL_BW (9 h) was 198.4 g. It also gave an APTT (9 h) of 21.5 s, a Bas (9 h) of 0% and an Eos (9 h) of 0.8%. The Fbg (9 h) was 288.4 mg/dL, the Hb (9 h) was 12.8 g/dL and the Ht (9 h) was 36.9%. For the same molecule, the Lym (9 h) was 72.4%, the MCH (9 h) was 21.3 pg and the MCHC (9 h) was 34.7%. It also gave an MCV (9 h) of 61.4 fL, a Mono (9 h) of 3.2% and a Neu (9 h) of 22.6%. The PT (9 h) was 15.5 s, the Plat (9 h) was 124.3 x10_4/uL and the RBC (9 h) was 601 x10_4/ul. For the same molecule, the Ret (9 h) was 7.6%, the WBC (9 h) was 96.3 x10_2/uL and the KIDNEY_L (9 h) was 0.9 g. The KIDNEY_R (9 h) was 0.9 g, the KIDNEY_TOTAL (9 h) was 1.9 g and the LIVER (9 h) was 8.8 g. It also gave an A/G (9 h) of 1.4, an ALP (9 h) of 1745.2 IU/L and an ALT (9 h) of 35.2 IU/L. It also gave an AST (9 h) of 69.2 IU/L, a BUN (9 h) of 9.6 mg/dL and a CRE (9 h) of 0.1 mg/dL. For the same molecule, the Ca (9 h) was 11 mg/dL, the Cl (9 h) was 106.4 meq/L and the DBIL (9 h) was 0.014 mg/dL. For the same molecule, the GLC (9 h) was 179.6 mg/dL, the IP (9 h) was 10.7 mg/dL and the K (9 h) was 4.3 meq/L. The LDH (9 h) was 219.6 IU/L, the Na (9 h) was 141.2 meq/L and the PL (9 h) was 129.2 mg/dL. The RALB (9 h) was 3.1 g/dL, the TBIL (9 h) was 0.016 mg/dL and the TC (9 h) was 65.6 mg/dL. For the same molecule, the TG (9 h) was 91.2 mg/dL, the TP (9 h) was 5.3 g/dL and the gamma-GTP (9 h) was 1 IU/L. It also gave a TERMINAL_BW (24 h) of 207.3 g, an APTT (24 h) of 23.2 s and a Bas (24 h) of 0%. It also gave an Eos (24 h) of 0.8%, a Fbg (24 h) of 303.6 mg/dL and a Hb (24 h) of 13.3 g/dL. For the same molecule, the Ht (24 h) was 38.7%, the Lym (24 h) was 79.2% and the MCH (24 h) was 21.2 pg. The MCHC (24 h) was 34.3%, the MCV (24 h) was 61.9 fL and the Mono (24 h) was 2.2%. For the same molecule, the Neu (24 h) was 16.8%, the PT (24 h) was 16 s and the Plat (24 h) was 117.6 x10_4/uL. For the same molecule, the RBC (24 h) was 627 x10_4/ul, the Ret (24 h) was 7.3% and the WBC (24 h) was 93.1 x10_2/uL. For the same molecule, the KIDNEY_L (24 h) was 0.9 g, the KIDNEY_R (24 h) was 0.9 g and the KIDNEY_TOTAL (24 h) was 1.8 g. For the same molecule, the LIVER (24 h) was 9.6 g, the A/G (24 h) was 1.2 and the ALP (24 h) was 1815.8 IU/L. For the same molecule, the ALT (24 h) was 47.2 IU/L, the AST (24 h) was 79 IU/L and the BUN (24 h) was 14.2 mg/dL. It also gave a CRE (24 h) of 0.2 mg/dL, a Ca (24 h) of 10.8 mg/dL and a Cl (24 h) of 106.2 meq/L. It also gave a DBIL (24 h) of 0.004 mg/dL, a GLC (24 h) of 193.4 mg/dL and an IP (24 h) of 7.4 mg/dL. The K (24 h) was 4 meq/L, the LDH (24 h) was 242.4 IU/L and the Na (24 h) was 140.2 meq/L. It also gave a PL (24 h) of 144 mg/dL, an RALB (24 h) of 3 g/dL and a TBIL (24 h) of 0.006 mg/dL. It also gave a TC (24 h) of 68.8 mg/dL, a TG (24 h) of 155.2 mg/dL and a TP (24 h) of 5.5 g/dL. The gamma-GTP (24 h) was 1.8 IU/L.
